# Marks after values point to notes of the source that are not given here.
# Columns and labels:
# [1] = target: T1, PDE4A enzyme (Homo sapiens, UniProt P27815); assay: Inhibition of the activity of PDE4A enzyme (fluorescence polarization, Transcreener AMP2/GMP2); type: biochemical; conditions: 1 h, mean ± spread; for remaining activity at 0.01 µM: 0.01 μM compound; for remaining activity at 0.1 µM: 0.1 μM compound; for remaining activity at 1 µM: 1 μM compound
# T1 construct: GST (N); host or cells: Sf9 insect cells (baculovirus)
# Experimental: The PDE4A enzyme expressed from baculovirus is labeled with N-terminal GST from Sf9 insect cells. A specified PDE4A enzyme and 1 mM cAMP are added to the newly prepared pH 7.5 Tris buffer, the enzyme solution is transferred into reaction wells, and the compound is sonicated in DMSO and then added to the enzyme solution for culturing for 10 minutes at room temperature; the substrate solution is poured into the reaction wells to initiate the reaction and cultured at room temperature for 1 hour, and a detection tracer (AMP2/GMP2 AlexaFluor 633 Tracer) and an antibody (Transcreener® AMP2/GMP2 Antibody) are added to stop the reaction for culturing for 90 minutes with gentle mixing. […]
# [2] = tested on: DNCB-induced atopic dermatitis mice; assay: DNCB-induced dermatitis mouse model, skin thickness; type: in vivo, female BALB/C mice; conditions: for reduction of the thickness of the dermis compared with Crisaborole / reduction of the thickness of the epidermis compared with Crisaborole / reduction of the thickness of the dermis compared with the compound Y5 / reduction of the thickness of the epidermis compared with the compound Y5: 50 mg/mL topical; for reduction of the thickness of the dermis compared with Crisaborole / reduction of the thickness of the epidermis compared with Crisaborole: statistical comparison vs Crisaborole group; for Epidermal thickness / Dermis thickness: 50 mg/mL, 100 μL applied to back skin, 11 times once a day, Mean ± SD, n = 8; for Epidermal thickness: model 137.76, blank 48.93; for Dermis thickness: model 500.71, blank 194.70; for reduction of the thicknesses of the epidermal layer and dermal layer: vs model group, P<0.01; for reduction of the thickness of the dermis compared with the compound Y5 / reduction of the thickness of the epidermis compared with the compound Y5: statistical comparison vs Y5 group
# Experimental: After female BALB/C mice are selected, each weighing 18-22 g, for animal adaptive breeding for 7 days, these are randomly divided into a blank group, a model group, a positive drug Crisaborole group, a hexadecadrol group, and compound groups, with 8 in each group. Except for the mice in the blank group, the remaining mice are applied with 100 μL of a 1% DNCB solution [acetone: olive oil=4:1 (V/V)] on the skin of the back of the shaved mice, and applied continuously for 3 days once a day. Then, dosing treatment starts 4 days after the mice are housed, and the test drug is applied to the back of each group of animals, wherein animals in the blank group and the model group are applied with a corresponding solvent, the positive drug Crisaborole group and hexadecadrol group are applied with 50 mg/mL of a corresponding drug, and the administration group is applied with 50 mg/mL of a corresponding compound, with 100 μL for each mouse; after application of 4 hours, 0.5% DNCB solution is applied for secondary challenge, and repeated administration and challenge treatment are performed 11 times, once a day. 24 hours after the last administration, the animals are sacrificed, and the back skins (1×0.4 cm^2) are taken and fixed in 10% formalin buffer to make pathological sections and perform HE staining; then, the epidermal and dermal layers are observed under a 100× […], and 5 areas are selected for detection of and recording the skin thickness, and then the average value is taken to represent the final thicknesses of the epidermal layer and dermal layer, respectively.
# T1 sequence (P27815 whole entry, species assumed): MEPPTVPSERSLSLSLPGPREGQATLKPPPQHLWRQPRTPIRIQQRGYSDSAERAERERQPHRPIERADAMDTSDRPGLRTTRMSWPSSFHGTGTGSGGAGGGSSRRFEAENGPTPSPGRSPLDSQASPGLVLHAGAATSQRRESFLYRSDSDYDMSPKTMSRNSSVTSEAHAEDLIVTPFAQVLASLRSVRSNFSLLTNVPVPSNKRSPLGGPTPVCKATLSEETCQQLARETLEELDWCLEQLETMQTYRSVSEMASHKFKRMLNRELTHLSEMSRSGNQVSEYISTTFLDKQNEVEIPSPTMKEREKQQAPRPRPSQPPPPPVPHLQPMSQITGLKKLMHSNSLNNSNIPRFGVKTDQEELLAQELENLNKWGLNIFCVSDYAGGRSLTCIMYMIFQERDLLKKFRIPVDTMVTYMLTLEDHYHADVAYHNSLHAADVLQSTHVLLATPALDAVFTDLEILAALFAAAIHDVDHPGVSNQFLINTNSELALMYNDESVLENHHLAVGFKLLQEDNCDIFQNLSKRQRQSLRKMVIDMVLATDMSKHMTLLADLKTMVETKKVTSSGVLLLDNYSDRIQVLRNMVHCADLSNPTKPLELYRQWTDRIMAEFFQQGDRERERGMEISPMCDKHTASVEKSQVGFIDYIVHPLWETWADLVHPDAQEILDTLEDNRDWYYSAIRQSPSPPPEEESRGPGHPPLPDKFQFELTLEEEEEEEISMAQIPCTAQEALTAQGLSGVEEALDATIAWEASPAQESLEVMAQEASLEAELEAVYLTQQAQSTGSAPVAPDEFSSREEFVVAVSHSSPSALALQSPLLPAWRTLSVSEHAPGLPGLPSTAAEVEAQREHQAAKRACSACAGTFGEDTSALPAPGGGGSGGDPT
remaining activity at 0.01 µM [1] [%],remaining activity at 0.1 µM [1] [%],remaining activity at 1 µM [1] [%],Compound,reduction of the thickness of the dermis compared with Crisaborole [2],reduction of the thickness of the epidermis compared with Crisaborole [2],Epidermal thickness [2],Dermis thickness [2],reduction of the thicknesses of the epidermal layer and dermal layer [2],reduction of the thickness of the dermis compared with the compound Y5 [2],reduction of the thickness of the epidermis compared with the compound Y5 [2]
18.8 ± 3.23,5.45 ± 1.06,3.74 ± 0.71,COC(=O)c1cccc2nc(Oc3ccc4c(c3)COB4O)ccc12 [PD-1],significantly reduce the thickness of the dermis of dermatitis mice (P≤0.01),significantly reduce the thickness of the epidermis (P≤0.01),75.64 ± 7.86 aa μm,385.26 ± 20.17 a μm,,significantly reduce the thickness of the dermis of dermatitis mice (P≤0.05),significantly reduce the thickness of the epidermis (P≤0.01)
7.42 ± 2.11,3.8 ± 0.76,2.75 ± 0.51,O=C(O)c1cccc2nc(Oc3ccc4c(c3)COB4O)ccc12 [PD-2],,,100.26 ± 11.35 μm,439.76 ± 30.02 μm,,,
17.3 ± 1.19,4.94 ± 1.56,1.98 ± 0.47,CCOC(=O)c1cccc2nc(Oc3ccc4c(c3)COB4O)ccc12 [PD-3],significantly reduce the thickness of the dermis of dermatitis mice (P≤0.05),,98.74 ± 9.63 μm,420.80 ± 30.55 μm,,,
6.17 ± 0.34,2.49 ± 0.75,1.95 ± 0.18,N#Cc1ccc2nc(Oc3ccc4c(c3)COB4O)ccc2c1 [PD-4],significantly reduce the thickness of the dermis of dermatitis mice (P≤0.01),significantly reduce the thickness of the epidermis (P≤0.01),70.42 ± 9.24 aa μm,375.06 ± 20.41 a a μm,,significantly reduce the thickness of the dermis of dermatitis mice (P≤0.01),significantly reduce the thickness of the epidermis (P≤0.01)
9.01 ± 2.02,7.27 ± 1.78,3.46 ± 1.18,COC(=O)c1cc(Oc2ccc3c(c2)COB3O)nc2ccccc12 [PD-5],,,106.74 ± 15.14 μm,440.12 ± 23.22 μm,,,
0.9 ± 0.23,0.6 ± 0.1,0.32 ± 0.13,OB1OCc2cc(Oc3ccc4cc(C(F)(F)F)ccc4n3)ccc21 [PD-6],significantly reduce the thickness of the dermis of dermatitis mice (P≤0.01),significantly reduce the thickness of the epidermis (P≤0.01),70.87 ± 14.43 ^aa μm,380.15 ± 22.54 ^a a μm,,significantly reduce the thickness of the dermis of dermatitis mice (P≤0.01),significantly reduce the thickness of the epidermis (P≤0.01)
6.41 ± 0.32,1.83 ± 0.41,1.12 ± 0.99,OB1OCc2cc(Oc3ccc4c(C(F)(F)F)cccc4n3)ccc21 [PD-7],significantly reduce the thickness of the dermis of dermatitis mice (P≤0.01),significantly reduce the thickness of the epidermis (P≤0.01),68.21 ± 7.66 aa μm,370.11 ± 24.60 a a μm,,significantly reduce the thickness of the dermis of dermatitis mice (P≤0.01),significantly reduce the thickness of the epidermis (P≤0.01)
4.36 ± 0.59,2.25 ± 1.19,1.21 ± 0.17,OB1OCc2cc(Oc3ccc4c(C(F)(F)F)cc(Cl)cc4n3)ccc21 [PD-8],significantly reduce the thickness of the dermis of dermatitis mice (P≤0.01),significantly reduce the thickness of the epidermis (P≤0.01),76.58 ± 8.79**^##aa μm,385.17 ± 28.85 ^a μm,,significantly reduce the thickness of the dermis of dermatitis mice (P≤0.05),significantly reduce the thickness of the epidermis (P≤0.01)
3.41 ± 0.45,1.92 ± 0.39,0.99 ± 0.85,N#Cc1ccc2nc(Oc3ccc4c(c3)COB4O)cc(C(F)(F)F)c2c1 [PD-9],significantly reduce the thickness of the dermis of dermatitis mice (P≤0.05),significantly reduce the thickness of the epidermis of the dermatitis mice (P≤0.05),97.25 ± 10.43 μm,413.25 ± 31.50 μm,,,
10.8 ± 1.6,2.45 ± 0.32,1.55 ± 0.67,COC(=O)c1ccc2nc(Oc3ccc4c(c3)COB4O)ccc2c1 [PD-10],significantly reduce the thickness of the dermis of dermatitis mice (P≤0.01),significantly reduce the thickness of the epidermis (P≤0.01),92.17 ± 9.94 μm,406.74 ± 29.54 μm,,,
10.1 ± 1.93,5.85 ± 0.72,1.7 ± 0.43,NC(=O)c1cccc2nc(Oc3ccc4c(c3)COB4O)ccc12 [PD-11],,,95.37 ± 8.75 μm,443.17 ± 33.40 μm,,,
,,,"C[C@@H]1C[C@H]2[C@@H]3CCC4=CC(=O)C=C[C@]4(C)[C@@]3(F)[C@@H](O)C[C@]2(C)[C@@]1(O)C(=O)CO [hexadecadrol, reference compound]",,,72.14 ± 10.58 ^a a μm,377.32 ± 22.05**^a a μm,significantly reduce the thicknesses of the epidermal layer and dermal layer,,

Compound,remaining activity at 0.01 µM [1] [%],remaining activity at 0.1 µM [1] [%],remaining activity at 1 µM [1] [%],reduction of the thickness of the dermis compared with Crisaborole [2],reduction of the thickness of the epidermis compared with Crisaborole [2],Epidermal thickness [2],Dermis thickness [2],reduction of the thicknesses of the epidermal layer and dermal layer [2],reduction of the thickness of the dermis compared with the compound Y5 [2],reduction of the thickness of the epidermis compared with the compound Y5 [2]
"OB1OCc2cc(Oc3ccc(C(F)(F)F)cn3)ccc21 [Compound Y5, reference compound]",61.3 ± 3.18,15.3 ± 1.3,5.56 ± 0.28,significantly reduce the thickness of the dermis of dermatitis mice (P≤0.01),significantly reduce the thickness of the epidermis of the dermatitis mice (P≤0.05),90.14 ± 8.98 μm,415.08 ± 25.00 μm,significantly reduce the thicknesses of the epidermal layer and dermal layer,,
"N#Cc1ccc(Oc2ccc3c(c2)COB3O)cc1 [Crisaborole, reference compound]",78 ± 5.02,35.2 ± 3.35,11 ± 0.52,,,105.26 ± 11.35 μm,455.14 ± 27.27 μm,significantly reduce the thicknesses of the epidermal layer and dermal layer,,
